From US10421750B2, “Substituted morpholine derivatives having activity against pain” (ESTEVE PHARMACEUTICALS, S.A., priority 2015, dated 2019)

Biological target: human σ1 receptor (Homo sapiens (Human), UniProt Q99720)
Test: Human σ1 receptor radioligand assay ([3H](+)-pentazocine, transfected HEK-293 membranes)
Settings: binding to the σ1 receptor expressed as Ki, [3H](+)-pentazocine 5 nM
Method: Human σ1 Receptor Radioligand Assay
To investigate binding properties of test compounds to human σ1 receptor, transfected HEK-293 membranes and [^3H](+)-pentazocine (Perkin Elmer, NET-1056), as the radioligand, were used. The assay was carried out with 7 μg of membrane suspension, 5 nM of [^3H](+)-pentazocine in either absence or presence of either buffer or 10 μM Haloperidol for total and non-specific binding, respectively. Binding buffer contained Tris-HCl 50 mM at pH 8. Plates were incubated at 37° C. for 120 minutes. After the incubation period, the reaction mix was then transferred to MultiScreen HTS, FC plates (Millipore), filtered and plates were washed 3 times with ice-cold 10 mM Tris-HCL (pH7.4). Filters were dried and counted at approximately 40% efficiency in a MicroBeta scintillation counter (Perkin-Elmer) using EcoScint liquid scintillation cocktail

Chain of human σ1 receptor (Q99720 whole entry): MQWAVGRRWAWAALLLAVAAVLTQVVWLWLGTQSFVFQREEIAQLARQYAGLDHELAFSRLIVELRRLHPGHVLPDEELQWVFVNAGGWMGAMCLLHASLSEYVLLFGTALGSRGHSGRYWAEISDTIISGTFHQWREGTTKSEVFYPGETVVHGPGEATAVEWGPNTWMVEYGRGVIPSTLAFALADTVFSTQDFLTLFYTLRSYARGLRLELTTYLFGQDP

Row | Ki | SMILES
1 | < 100 nM | COc1ccc(CN2CCOC(C3CCN(Cc4ccccc4)CC3)C2)cc1 (stereo not drawn) [Example 49, 2-(1-benzylpiperidin-4-yl)-4-(4-methoxybenzyl)morpholine]
2 | < 100 nM | CCN1CCOC(C2CCN(Cc3ccccc3)CC2)C1 (stereo not drawn) [Example 50, 2-(1-benzylpiperidin-4-yl)-4-ethylmorpholine]
3 | < 100 nM | CC(C)CCN1CCC(C2CN(C(=O)c3ccccc3)CC3(CC3)O2)CC1 (stereo not drawn) [Example 51, (5-(1-Isopentylpiperidin-4-yl)-4-oxa-7-azaspiro[2.5]octan-7-yl)(phenyl)methanone]
